# Data as given in EP0487930B1, “Benzo[C]phenanthridinium derivatives” (NIPPON KAYAKU KABUSHIKI KAISHA, priority 1990, dated 1992).
# Where a name gives a salt, the structure may show the parent alone. Read-outs that look alike come from different tables or passages of the source.
# How the values were obtained:
# [1] = Storage stability of the powder at room temperature; assay type: physicochemical; details: stored at room temperature for a long period of time
# Excerpt: This compound is a powdery material having a yellowish color immediately after the production thereof. It gradually changes its color into brown. […] This is because a decomposition product, which is difficultly soluble in water, has been formed during the storage of the compound. So, it is not considered that the compound has properties suitable for formulating into a phamaceutical preparation.
# 2,3-(methylenedioxy)-5-methyl-7-hydroxy-8-ethoxy-benzo[c]phenanthridinium hydrogen sulfate (compound A-0), wherein the acid residue X^- is a hydrogen sulfate ion HSO4^-, is a compound according to the invention, and can be obtained as yellow powder. […] A 0.5 µM aqueous solution of 2,3-(methylenedioxy)-5-ethyl-7-hydroxy-8-methoxy-benzo[c]phenanthridinium chloride, wherein the acid residue X^- is a chloride ion Cl^-, has a pH of 4.3. On the other hand, a 0.5 µM aqueous solution of 2,3-(methylenedioxy)-5-methyl-7-hydroxy-8-methoxy-benzo[c]phenanthridinium hydrogen sulfate according to the invention, wherein the acid residue X^- is a hydrogen sulfate ion HSO4^-, has a pH of 3.9. […] There are no disadvantages in the pharmaceutical activities of such compounds when they have the form of hydrogen salts such as hydrogen sulfate salts. Therefore, the hydrogen salt compounds are practically useful as medicines in view of the enhanced stability thereof.
# HeLa S3 = test: Growth inhibition activity against tumor cells (Methylene Blue staining); assay type: cell-based; details: Homo sapiens
# Method: (§1) Various tumor cells were cultured at 37°C for 24 hours in 5% gaseous carbon dioxide, and then subjected to an action of a test drug for 2-4 days. After that, the cells were stained with 0.05% Methylene Blue. The pigment were extracted from the stained cells. The growth inhibition rate of the cells was determined based on absorbance of the extracted pigment at 660 nm, and the 50% growth inhibitory concentration (IC50) was calculated.
# (§2) In this table, the abbreviated expressions have the following tumor cells: HeLa S3 = carcinoma colli; MMI = ovarian cancer; SHIN-3 = ovarian cancer; N-231 = small cell lung cancer; Lu-130 = small cell lung cancer; Nakajima = gastric cancer; and the expression "n.t." represents "not tested". These tests were conducted according to a simultaneous comparison test method, except the case of HeLa S3.
# SHIN-3 = test: as above; assay type: cell-based
# Method: as §1, §2
# MMI = test: as above; assay type: cell-based
# Method: as §1, §2
# Lu-130 = test: as above; assay type: cell-based
# Method: as §1, §2
# N-231 = test: as above; assay type: cell-based
# Method: as §1, §2
# Nakajima = test: as above; assay type: cell-based; details: Nakajima = gastric cancer; test drug for 2-4 days
# Method: as §1, §2
# [2] = test system: platelet aggregation caused by platelet activation factor (PAF) in platelet-rich plasma (PRP); test: Inhibition activity on platelet aggregation (serotonin release, anti-PAF activity); assay type: cell-based, Japanese albino rabbits; details: Oryctolagus cuniculus, PAF 10^-7 M, serotonin release inhibition rate; for inhibition at 25 µg/mL: Concentration 25 µg/ml; for inhibition at 50 µg/mL: Concentration 50 µg/ml; for inhibition at 100 µg/mL: Concentration 100 µg/ml
# Method: Platelet-rich plasma (PRP) was collected from Japanese albino rabbits (weighing 3-4 kg). As a platelet aggregation inducer, platelet activation factor (PAF) was used in a final concentration of 10^-7 M. A test drug was added to PRP. After incubation for a definite period of time, PAF was added to cause a platelet aggregation reaction. The reaction was terminated with EDTA. After a centrifugation, the supernatant was removed to obtain platelet precipitates. Distilled water was added to the platelet precipitates, whereby the serotonin remained in the platelet was reacted with an orthophthalaldehyde reagent to form a serotonin-orthophthaladehyde condensate. The condensate was measured at an excited wavelength of 360 nm and at a measurement wavelength of 475 nm. Anti-PAF activity of the test drug was determined by the following equation. Serotonin release inhibition rate (%) =((Test drug + PAF) value - PAF value)/(Blank value - PAF value)x 100 [formula] In the equation, the expression "value" stands for "serotonin value".
# [3] = SHIN-3 = ovarian cancer, test drug for 2-4 days, read-out: IC50
# [4] = MMI = ovarian cancer, test drug for 2-4 days, read-out: IC50
# [5] = Lu-130 = small cell lung cancer, test drug for 2-4 days, read-out: IC50
# [6] = N-231 = small cell lung cancer, test drug for 2-4 days, read-out: IC50
Structure (SMILES),IC50 (HeLa S3; HeLa S3) [µg/mL],IC50 (SHIN-3) [µg/mL],IC50 (MMI) [µg/mL],IC50 (Lu-130) [µg/mL],IC50 (N-231) [µg/mL],IC50 (Nakajima) [µg/mL],IC50 (SHIN-3; [3]) [µg/mL],IC50 (MMI; [4]) [µg/mL],IC50 (Lu-130; [5]) [µg/mL],IC50 (N-231; [6]) [µg/mL],inhibition at 25 µg/mL [2] [%],inhibition at 50 µg/mL [2] [%],inhibition at 100 µg/mL [2] [%],other results
"COc1ccc2c(c[n+](C)c3c4cc5c(cc4ccc23)OCO5)c1O [2,3-(methylenedioxy)-5-methyl-7-hydroxy-8-methoxy-benzo[c]phenanthridinium chloride]",,,,,,,,,,,,,,stability on storage [1]: gradually decomposed
"COc1ccc2c(c[n+](C)c3c4cc5c(cc4ccc23)OCO5)c1O [Compound A-0, 2,3-(methylenedioxy)-5-methyl-7-hydroxy-8-methoxy-benzo[c]phenanthridinium hydrogen sulfate salt]",0.15,0.192,0.12,0.055,0.036,,,,,,,,,
"CC[n+]1cc2c(O)c(OC)ccc2c2ccc3cc4c(cc3c21)OCO4 [Compound A-1, 2,3-(methylenedioxy)-5-ethyl-7-hydroxy-8-methoxy-benzo[c]phenanthridinium hydrogen sulfate salt]",,,,,,0.426,0.17,0.165,0.25,0.04,49.6,74.1,96.5,"IC50 (HeLa S3; HeLa S3 = carcinoma colli, test drug for 2-4 days, not part of the simultaneous comparison test, read-out: IC50): 0.177 µg/mL; inhibition at 12.5 µg/mL ([2]; Concentration 12.5 µg/ml): 25.2%"
"CCC[n+]1cc2c(O)c(OC)ccc2c2ccc3cc4c(cc3c21)OCO4 [Compound A-2, 2,3-(methylenedioxy)-5-(n-propyl)-7-hydroxy-8-methoxy-benzo[c]phenanthridinium hydrogen sulfate salt]",,,,,,0.777,0.414,0.273,0.108,0.085,,,,
"CC[n+]1cc2c(O)c(OC)ccc2c2ccc3ccccc3c21.O=S(=O)([O-])O [Compound A-3, 5-ethyl-7-hydroxy-8-methoxy-benzo[c]phenanthridinium hydrogen sulfate salt]",0.69,,,,,,,,,,,,,
"COc1ccc2c(c[n+](C)c3c4ccccc4ccc23)c1O.O=S(=O)([O-])O [Compound A-4, 5-methyl-7-hydroxy-8-methoxy-benzo[c]phenanthridinium hydrogen sulfate salt]",0.26,0.155,0.262,0.051,0.062,,,,,,10.9,26.5,46.4,
